The values that follow are results of earlier work, collected in patent publication US20200197364A1, “DIHYDROMYRICETIN NANOPARTICLE FORMULATIONS” (priority 2017, published 2020).

The conditions of series [1]: data collected by EPA.
For series [2] the following is noted: in vivo.
For series [3] the following is noted: through intestinal mucosa.

On to `O=C1c2c(O)cc(O)cc2O[C@H](c2cc(O)c(O)c(O)c2)[C@H]1O` [DHM, Dihydromyricetin], for which the “Log P” value in series [1] is “approximately 1.31”. Moreover, the Oral bioavailability result in series [2] is on record as “less than 5%”. Moreover, in series [3], the Permeability result is “low”.
